Measured values from paper PMC9969401, “Discovery of 2-(3-Benzamidopropanamido)thiazole-5-carboxylate Inhibitors of the Kinesin HSET (KIFC1) and the Development of Cellular Target Engagement Probes” (Journal of Medicinal Chemistry, 2023).

What was measured:
[1] = molecular target: T1, recombinant full-length HSET (Homo sapiens, UniProt Q9BW19); experiment: ADP-Glo HSET assay (3 μM ATP), microtubule-stimulated ATPase; type: biochemical; conditions: for IC50: preformed microtubules, 3 μM ATP, read-out: HSET ADP-Glo IC50
T1 construct: 5 nM full-length human N-terminal His-tag HSET; His-tag (N)
T1 sequence (Q9BW19 1-673): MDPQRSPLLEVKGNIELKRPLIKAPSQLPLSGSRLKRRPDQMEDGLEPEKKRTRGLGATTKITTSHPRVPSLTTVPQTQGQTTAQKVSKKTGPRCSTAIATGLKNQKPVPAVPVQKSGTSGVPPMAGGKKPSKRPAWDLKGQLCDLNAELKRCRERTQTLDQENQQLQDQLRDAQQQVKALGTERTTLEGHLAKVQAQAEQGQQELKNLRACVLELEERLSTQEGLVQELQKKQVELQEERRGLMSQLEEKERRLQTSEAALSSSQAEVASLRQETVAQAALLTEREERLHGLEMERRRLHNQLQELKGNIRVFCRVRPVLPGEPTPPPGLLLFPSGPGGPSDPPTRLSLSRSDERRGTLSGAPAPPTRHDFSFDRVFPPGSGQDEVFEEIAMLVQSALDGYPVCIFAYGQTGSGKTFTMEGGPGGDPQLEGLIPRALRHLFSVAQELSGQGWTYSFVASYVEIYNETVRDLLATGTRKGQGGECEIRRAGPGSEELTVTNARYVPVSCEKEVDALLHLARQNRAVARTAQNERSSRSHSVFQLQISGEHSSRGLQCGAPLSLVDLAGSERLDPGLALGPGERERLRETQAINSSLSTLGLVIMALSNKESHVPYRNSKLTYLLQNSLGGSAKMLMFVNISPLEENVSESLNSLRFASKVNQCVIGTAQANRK
Method in brief: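 His-tagged full-length HSET (5 nM) or GST-Eg5 motor domain (4 nM), with 70 μg/mL paclitaxel-stabilised microtubules in HEPES pH 6.8 buffer, was preincubated with compound for 10 min. ATP was then added (3 or 500 μM for HSET, 4.8 μM for Eg5), followed by 80 min at 25 °C and ADP-Glo luminescence. IC50 was fitted with a four-parameter logistic.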

[2] = molecular target: T2, full-length HSET (FL HSET) (Homo sapiens, UniProt Q9BW19); experiment: Fluorescence polarization probe Kd determination; type: binding
T2 construct: 5 nM full-length human N-terminal His-tag HSET; His-tag (N)
T2 sequence (Q9BW19 1-673): T1 sequence (Q9BW19 1-673)
Experimental: Steady-state fluorescence polarization binding assays were performed using the fluorescence-tagged probe 37. All assays were performed in a black ProxiPlate-384 Plus plate (PerkinElmer, 6008260) in a 10 μL volume in buffer containing 20 mM HEPES pH 7.5, 200 mM NaCl, 1 mM TCEP, 10 mM MgCl2, 0.1 mM Triton X-100, and 5% glycerol (v/v). Full-length human N-terminal His-tag HSET was used, with a final concentration of 2.5 nM 37 probe. The assays were sealed and incubated in the dark at 25 °C and then the FP signal was read on an EnVision multimode plate reader (PerkinElmer Life Sciences) using excitation at 620 nm and parallel and perpendicular emissions at 688 nm. All data processing was done using Prism (GraphPad Software).
For the probe Kd determinations, FL HSET final concentrations were used between 2000 and 0.5 nM. When present, preformed microtubules (Universal Biologicals Cambridge, bovine MT001-XL or porcine MT002-XL), which were reconstituted in 15 mM PIPES pH 7, 20 μM paclitaxel, or reconstitution buffer alone, were preincubated with HSET for 10 min and then added to the probe. The plate was read after 3 h of incubation in the dark at 25 °C. Kd values were determined using a 1:1 site binding model of the fluorescence polarization versus protein concentration.

[3] = molecular target: T1, recombinant full-length HSET; experiment: ADP-Glo HSET assay (500 μM ATP); type: biochemical; conditions: high ATP concentration of 500 μM; single determination or mean of two
Experimental: (§1) The HSET or Eg5 ATPase activity was measured using the ADP-Glo Kinase Assay kit (Promega, V9102). The assays were run using final concentrations of 5 nM full-length human N-terminal His-tag HSET or 4 nM GST-tagged Eg5 motor domain protein (Cytoskeleton, EG01) and an assay buffer containing 20 mM HEPES pH 6.8, 10 mM MgCl2, 0.25 mM EGTA, 0.4 mM Triton X-100, and 1 mM DTT. Preformed microtubules (Universal Biologicals Cambridge, bovine MT001-XL, or porcine MT002-XL), which were reconstituted in 15 mM PIPES pH 7, 1 mM MgCl2, and 20 μM paclitaxel, were present at a final assay concentration of 70 μg/mL. A reaction volume of 5 μL was used in Proxiplate 384 plus white assay plates (PerkinElmer, 6008280). To measure compound inhibition, 100 nL of compound dissolved in DMSO or DMSO alone was preincubated with the HSET and microtubules for 10 min before 3 μM Ultra-Pure ATP was added to start the ATPase reaction for the 3 μM ATP HSET assay. For the 500 μM ATP HSET assay, the addition of 500 μM Ultra-Pure ATP was used. For the Eg5 ATPase assay, 4.8 μM Ultra-Pure ATP was used. All reactions were incubated at 25 °C for 80 min and then stopped by the addition of 5 μL of the ADP-Glo reagent. 10 μL of Kinase Detection Reagent was then added after a further 45 min of incubation. The luminescence was read after 45 min on a PheraStar FSX plate reader (BMG Labtech). The data processing was performed using Dotmatics Studies software package. Percentage inhibition was determined based on normalization to high controls (0% inhibition, all reagents with 100 nL of DMSO alone) and low controls (100% inhibition […], without HSET). The IC50 values for each compound were determined using a four-parameter logistic curve fit of % inhibition versus concentration.

[4] = molecular target: T3, GST-tagged Eg5 motor domain (Homo sapiens, UniProt P52732); experiment: ADP-Glo Eg5 assay (4.8 μM ATP); type: biochemical; conditions: preformed microtubules, 4.8 μM ATP (Table 4)
T3 construct: 4 nM GST-tagged Eg5 motor domain protein (Cytoskeleton, EG01); purchased Cytoskeleton EG01
T3 sequence (P52732 18-359 limits assumed): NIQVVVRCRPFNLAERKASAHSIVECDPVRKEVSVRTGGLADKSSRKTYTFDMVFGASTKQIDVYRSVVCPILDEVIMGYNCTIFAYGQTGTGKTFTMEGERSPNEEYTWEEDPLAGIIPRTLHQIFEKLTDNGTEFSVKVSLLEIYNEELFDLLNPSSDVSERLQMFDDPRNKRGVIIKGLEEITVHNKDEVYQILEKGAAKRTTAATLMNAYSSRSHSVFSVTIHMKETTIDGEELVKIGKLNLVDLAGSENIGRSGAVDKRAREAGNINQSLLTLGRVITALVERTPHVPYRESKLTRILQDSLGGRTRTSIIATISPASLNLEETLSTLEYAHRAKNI
Experimental: as §1

DLD1 cells (4NCA and 4N) = type: cell-based; conditions: human
Experimental: (§2) Inhibition of HSET-mediated clustering was measured using a phenotypic assay measuring the formation of multipolar metaphase spindles in DLD1 cells with (4NCA) or without (4N) centrosome amplification. 4NCA cells were generated by treating 2N DLD1 cells with 2 μΜ DCB for 24 h, washed, and released in growth media for 24 h. 4N and 4NCA DLD1 cells were plated in 96-well ibidi μ-Clear plates (IB-89626, ibidi) with a no. 1.5 polymer coverslip bottom with optimal imaging properties. To enrich the mitotic population, cells were first treated for 3.5 h with 8 μM pro-TAME (I-440-01M, R&D system), an inhibitor of APC/C that transiently arrests cells in metaphase without affecting the structure of the spindle. Following the initial arrest, cells were treated with HSET compounds in the presence of 8 μM MG-132 (S2619, SelleckChem), a proteasome inhibitor that helps to maintain the metaphase arrest, where the number of spindle poles/cell can be optimally quantified by an automated segmentation analysis.
(§3) Cells were then fixed in methanol and stained for 3 h for mitotic pole marker aurora A (1:1000 610939 mouse anti-IAK1, BD Biosciences) and phosphorylated histone H3 (1:1500 ab47297 anti-histone H3 pS10, Abcam) as a marker of mitotic cells in 1.5% FBS in PBS. Following primary antibody treatment, cells were incubated with secondary antibodies Alexa Fluor 488 goat antimouse and Alexa Fluor 555 goat antirabbit (1:1500, A11029 and A21429, respectively, Life Technologies) together with 1 μg/mL DAPI (D9542, Sigma) in 1.5% FBS in PBS. Image acquisition was performed at 10× using the GE INCELL 2200 High Content Imaging System (Cytiva) and analyzed using the InCell Investigator software. Mitotic cells were identified by high pHH3 staining and were scored as multipolar if they had more than two mitotic spindle poles. The percentage of multipolar mitoses was calculated by dividing the number of multipolar mitoses by the total of all visible mitoses in one well of a 96-well plate (n > 100 for each replicate, two replicates per concentration point).
3. […]

[5] = system: centrosome-amplified (4NCA) DLD1 cells; experiment: Multipolar spindle assay (4NCA cell line); type: cell-based, human
Text: (§4) The cellular models consisted of chromosomally stable human colon cancer DLD1 diploid (2N) and tetraploid (4N) cells, along with tetraploid centrosome -amplified (4NCA) DLD1 cells and DLD1 HSET knockout (KO) cells. DLD1 2N and 4N cells were generated and characterized as previously described.[27],[41],[42] In order to generate 4NCA cells, we used dihydro-cytochalasin B (DCB) to transiently block cytokinesis and induce tetraploidisation and centrosome amplification in DLD1 cells. Centrosome amplification in 4NCA cells is transient and therefore they were generated from 2N cells for each run of the assay.[27] The DLD1 HSET KO cells were knockout clones generated by CRISPR and validated by sequencing to have a homozygous deletion in the KIFC1 gene.
as §2, §3

[6] = system: non-centrosome amplified DLD1 (4N) cells; experiment: Multipolar spindle assay (4N cell line); type: cell-based, human
Text: as §4, §2, §3

IC50 ([1]; mean (±SD) n ≥ 3 (37 n = 2, 38 single determination) (Table 3)) [nM] | Kd ([2]; FL HSET + MT buffer only) [nM] | Kd ([2]; isolated full-length HSET, no microtubules) [nM] | LE ([1]; LE = −1.4Log(IC50 [M])/number of non-hydrogen atoms (Table 1)) | LLE ([1]; LLE = −Log(IC50 [M]) – cLogP (MoKa) (Table 1)) | IC50 ([1]; mean (±SD) n ≥ 3 (Table 4)) [nM] | IC50 ([1]; mean (±SD) n ≥ 3, >200 from a single determination (Table 1)) [nM] | IC50 [3] [nM] | IC50 [4] [nM] | LE ([1]; LE = −1.4Log(IC50 [M])/number of non-hydrogen atoms (Table 2)) | LLE ([1]; LLE = −Log(IC50 [M]) – cLogP (MoKa) (Table 2)) | IC50 ([1]; mean (±SD) n ≥ 3, >200 from a single determination (Table 2)) [nM] | SMILES | concentration at which cellular toxicity observed (DLD1 cells (4NCA and 4N)) [µM] | % multipolarity above baseline @ 15 μM (4NCA cells) ([5]; 15 μM, 4NCA DLD1 cells (Table 4)) [%] | % multipolarity above baseline @ 15 μM (4NCA cells) ([5]; 15 µM, 4NCA cells, supplementary CSV) [%] | increase in mitotic spindle multipolarity (4NCA) ([5]; 15 μM, centrosome-amplified (4NCA) DLD1 cell line) [%] | % Multipolarity above baseline @ 15 mM (4N cells) ([6]; 15 μM, 4N cells, supplementary CSV) [%] | effect on multipolar mitoses (4N), in words ([6]; 15 μM, non-centrosome amplified DLD1 (4N) cell line) | % multipolarity above baseline @ 15 μM (4N cells) ([6]; 4N DLD1 cells (Table 4)) [%]
257 | 675 ± 148 | 371 | – | – | – | – | – | – | – | – | – | CCCOC(=O)c1sc(NC(=O)C[C@H](CCCNC(=O)CCCCC[N+]2=C(/C=C/C=C/C=C3/N(C)c4ccc(S(=O)(=O)O)cc4C3(C)C)C(C)(C)c3cc(S(=O)(=O)O)ccc32)NC(=O)c2cccc(-c3noc(C)n3)c2)nc1C [Compound 37, 3,3-Dimethyl-1-(6-(((S)-4-(3-(5-methyl-1,2,4-oxadiazol-3-yl)benzamido)-6-((4-methyl-5-(propoxycarbonyl)thiazol-2-yl)amino)-6-oxohexyl)amino)-6-oxohexyl)-5-sulfo-2-((1E,3E)-5-((E)-1,3,3-trimethyl-5-sulfoindolin-2-ylidene)penta-1,3-dien-1-yl)-3H-indol-1-ium] | – | – | – | – | – | – | –
– | – | – | 0.25 | 1.5 | 171 | 171 | 825 | 35600 | – | – | – | CCCc1cc(C(=O)N[C@H](Cc2ccc(-c3cccc(OC(F)(F)F)c3)nc2)C(=O)N[C@@H]2CCNC2)sc1C [Compound 1, 5-Methyl-6N-((R)-1-oxo-1-((R)-pyrrolidin-3-ylamino)-3-(6-(3-(trifluoromethoxy)phenyl)pyridin-3-yl)propan-2-yl)-4-propylthiophene-2-carboxamide, reference compound] | 6 | – | – | – | – | – | –
– | – | – | – | – | 93 | – | 332 | > 200000 | 0.32 | 3.7 | 93 | CCOC(=O)c1sc(NC(=O)CCNC(=O)c2cccc(-c3noc(C)n3)c2)cc1C [Compound 26, Ethyl 3-Methyl-5-(3-(3-(5-methyl-1,2,4-oxadiazol-3-yl)benzamido)propanamido)thiophene-2-carboxylate] | – | 13 | 13 | ~10 | 1 | no increases in multipolar mitoses | 1
